Test results as given in US8334253B2, “Cosmetic and dermatological formulations of MNTF peptides” (Dermacare Neuroscience Institute, priority 2008, dated 2012).

Tested on: hyaluronic acid levels in adult human dermal fibroblast (aHDF) conditioned media
Test: Hyaluronic acid in fibroblast-conditioned medium (HA-ELISA)
Type: cell-based
Details: positive control, 5 ng/ml, 96 h
Description: Hyaluronic acid (hyaluronan, HA), a naturally occurring carbohydrate polymer is a key component of connective, epithelial and neural tissues. HA participates in hydrodynamics, movement and proliferation of cells. This test was designed to determine whether a sample of palmitylated and non-palmitylated MNTF hexapeptide has an effect on hyaluronic acid levels in the adult human dermal fibroblast (aHDF) conditioned media.
Adult HDF (facial, passage 2, Cell Applications, San Diego, Calif. cat.#106-05A lot#1392) were plated in high glucose phosphate-free DMEM supplemented with 5% cosmic serum from Hyclone, Utah) at 6,000 cells per well and test materials were added the following day. Test materials were: Pal-Hexapeptide (palmitylated SEQ ID NO:2 as a lyophilized powder labeled APC 341055, lot V08150A1, received from DermaCare Neuroscience Institute), type I sterile water (negative control) and basic fibroblast growth factor (bFGF, positive control). Pal-Hexapeptide was dissolved in water at 20 mg/ml. Final concentrations tested were: 400, 200, 100, 50 and 25 ug/ml for DNP and 5 ng/ml for bFGF (plate 507). After 96 h, cell culture conditioned media were collected and 100 ul aliquotes were used for the HA assay. HA assay was performed using Hyaluronan Enzyme-Linked Immunosorbent Assay Kit (HA-ELISA, cat. #K-1200) from Echelon (Salt Lake City, Utah). The HA output was measured by following the generation of a chromophoric reaction product in 96 well plate, with the use of a BioRad microplate reader at 410 nm and the effect of the test materials was determined using the formula: Absorbance 410 (sample)/Absorbance 410 (Zero HA)×100.
Adult HDF (facial, passage 2, Cell Applications, San Diego, Calif. cat.#106-05A lot#1392) were plated in high glucose phosphate-free DMEM supplemented with 5% cosmic serum from Hyclone, Utah) at 6,000 cells per well and test materials were added the following day. Test materials were: hexapeptide (SEQ ID NO:2 (non-palmitylated), lyophilized powder lot #D294, received from DermaCare Neuroscience Institute), type I sterile water (negative control) and basic fibroblast growth factor (bFGF, positive control). Pal-Hexapeptide was dissolved in water at 20 mg/ml. Final concentrations tested were: 2000, 1000, 500 and 250 ug/ml for hexapeptide and 5 ng/ml for bFGF (plate 507). After 96 h, cell culture conditioned media were collected and 100 ul aliquotes were used for the HA assay. HA assay was performed using Hyaluronan Enzyme-Linked Immunosorbent Assay Kit (HA-ELISA, cat. #K-1200) from Echelon (Salt Lake City, Utah). The HA output was measured by following the generation of a chromophoric reaction product in 96 well plate, with the use of a BioRad microplate reader at 410 nm and the effect of the test materials was determined using the formula: Absorbance 410 (sample)/Absorbance 410 (Zero HA)×100.

Question: How did the “stimulation of hyaluronic acid in the fibroblast-conditioned medium” value turn out when “basic fibroblast growth factor [bFGF, reference compound]” was run?
Answer: The value was “moderately stimulatory activity”.
